Test system: S.mutans biofilms
Experiment: Follow-up observation of pH of washes of a laboratory model of S. mutans biofilms in 10% sucrose
Format: cell-based, Streptococcus mutans
Experimental: Example No. 2. Follow-up observation of pH of washes of a laboratory model of S. mutans biofilms.
Inoculum of S.mutans control strain was prepared from an ampoule. The ampoule with the dried strain was opened sterilely over a drier or a tray. The upper end of the ampoule was heated on a burner flame, and paraffin was removed; then a piece of sterile absorbent cotton moistened in sterile water was carefully touched to the pulled end of the ampoule so that a small crack appeared, and the same wet cotton was passed around the tip of the ampoule. After the crack had formed, the end of the ampoule was removed with a light blow of tweezers. After opening the ampoule, 0.3-0.5 ml of heart-brain broth was sterilely poured in. After dissolution of the dry contents, the ampoule was transferred with a Pasteur pipette into tubes with 2 ml of heart-brain broth and grown at 37°C for 2 hours in a thermostat in 5% CO2 medium. To restore full viability, 1-2 passages on nutrient media appropriate for the microbes of the species were required. 2 Petri dishes with agar containing 5% horse blood were seeded with 0.1 ml of a 2-hour culture on heart-brain broth of the strain. Petri dishes were incubated at 37°C for 18 hours in an incubator containing 5% CO2. Gram stained smears were prepared from the grown colonies to assess the tinctorial, phenotypic properties and homogeneity of bacteria. Species membership was confirmed using MALDI-TOF reference bases.
Aqueous solutions of nisin in concentrations of 0.004 and 0.008% were taken as the working solutions for testing. […] Distilled water was used as a negative control. […] Urea was chosen due to its ability to alkalinize the environment in bacterial biofilms (Jadon et al., 2018). During the assay, a 10% sucrose solution was used, which is known to be readily metabolized by cariogenic bacteria to acid, thus contributing to the overall acidification of the medium.
The contents of the wells were extracted using an aspirator. All 6 wells of the first row were filled with 1 ml of deionized water and left for 5 min. The water was extracted with an aspirator; 1 ml of the test solution was added into the wells; in 1 min the component was removed, the wells were glazed for 1 min with deionized water, then it was removed. 250 µl of 10% sucrose was added to the wells and biofilms were scraped off the well walls with a disposable plastic loop. The resulting suspension was transferred by pipette into three Eppendorf tubes: contents of wells 1 and 2 into Eppendorf tube No. 1, contents of wells 3 and 4 into Eppendorf tube No. 2, contents of wells 5 and 6 into Eppendorf tube No. 3; next, the measurement of pH started immediately. Time points of the measurement are: 0, 1, 2, 3, 4, 5, 6, 7, 8, 9, 10, 15, 20, 30 min. After the test was finished, the electrode was washed and the described procedure was repeated for the next solution under study.

NC(N)=O [Urea, reference compound]
pH of mechanically disrupted S.mutans biofilms (Urea 0.5%, 10% sucrose, 0 min): 6.33±0.03
pH of mechanically disrupted S.mutans biofilms (Urea 0.5%, 10% sucrose, 1 min): 6.32±0.006
pH change (in brackets), S.mutans biofilms (Urea 0.5%, 10% sucrose, 1 min vs previous time point): -0.01
pH of mechanically disrupted S.mutans biofilms (Urea 0.5%, 10% sucrose, 2 min): 6.22±0.01
pH change (in brackets), S.mutans biofilms (Urea 0.5%, 10% sucrose, 2 min vs previous time point): -0.1
pH of mechanically disrupted S.mutans biofilms (Urea 0.5%, 10% sucrose, 3 min): 6.15±0.006
pH change (in brackets), S.mutans biofilms (Urea 0.5%, 10% sucrose, 3 min vs previous time point): -0.07
pH of mechanically disrupted S.mutans biofilms (Urea 0.5%, 10% sucrose, 4 min): 6.09±0.006
pH change (in brackets), S.mutans biofilms (Urea 0.5%, 10% sucrose, 4 min vs previous time point): -0.06
pH of mechanically disrupted S.mutans biofilms (Urea 0.5%, 10% sucrose, 5 min): 6.06±0
pH change (in brackets), S.mutans biofilms (Urea 0.5%, 10% sucrose, 5 min vs previous time point): -0.03
pH of mechanically disrupted S.mutans biofilms (Urea 0.5%, 10% sucrose, 6 min): 6.04±0
pH change (in brackets), S.mutans biofilms (Urea 0.5%, 10% sucrose, 6 min vs previous time point): -0.02
pH of mechanically disrupted S.mutans biofilms (Urea 0.5%, 10% sucrose, 7 min): 6.02±0.006
pH change (in brackets), S.mutans biofilms (Urea 0.5%, 10% sucrose, 7 min vs previous time point): -0.02
pH of mechanically disrupted S.mutans biofilms (Urea 0.5%, 10% sucrose, 8 min): 6.0±0.01
pH change (in brackets), S.mutans biofilms (Urea 0.5%, 10% sucrose, 8 min vs previous time point): -0.02
pH of mechanically disrupted S.mutans biofilms (Urea 0.5%, 10% sucrose, 9 min): 5.93±0.02
pH change (in brackets), S.mutans biofilms (Urea 0.5%, 10% sucrose, 9 min vs previous time point): -0.07
pH of mechanically disrupted S.mutans biofilms (Urea 0.5%, 10% sucrose, 10 min): 5.83±0.02
pH change (in brackets), S.mutans biofilms (Urea 0.5%, 10% sucrose, 10 min vs previous time point): -0.1
pH of mechanically disrupted S.mutans biofilms (Urea 0.5%, 10% sucrose, 15 min): 5.74±0.02
pH change (in brackets), S.mutans biofilms (Urea 0.5%, 10% sucrose, 15 min vs previous time point): -0.09
pH of mechanically disrupted S.mutans biofilms (Urea 0.5%, 10% sucrose, 20 min): 5.46±0.02
pH change (in brackets), S.mutans biofilms (Urea 0.5%, 10% sucrose, 20 min vs previous time point): -0.28
pH of mechanically disrupted S.mutans biofilms (Urea 0.5%, 10% sucrose, 30 min): 5.24±0.006
pH change (in brackets), S.mutans biofilms (Urea 0.5%, 10% sucrose, 30 min vs previous time point): -0.22
Value of pH decrease within 30 min. of measurement (%) (Urea 0.5%, 10% sucrose, compared to the initial value): -17.22%
ability to stabilize pH in monospecies cariogenic biofilms (Urea in concentration of 0.5%, compared to the negative control): no ability to stabilize pH
